Experimental data: US20250230193A1, “CYCLIC COMPOUND HAVING SELECTIVE KRAS INHIBITORY EFFECT ON HRAS AND NRAS” (CHUGAI SEIYAKU KABUSHIKI KAISHA, priority 2022, published 2025)

Legend:
[1] = molecular target: GDP-bound NRAS wild-type protein (Homo sapiens, UniProt P01111); assay: Binding to NRAS by surface plasmon resonance (SPR), Single Cycle Kinetics; conditions: for NRAS/KRAS (ratio of KD for GDP-bound NRAS wild-type to KD for KRAS) / NRAS/KRAS (ratio of KD value with respect to NRAS to KD value with respect to KRAS): SPR; for NRAS/KRAS (ratio of KD value with respect to NRAS to KD value with respect to KRAS): GDP-bound NRAS wild-type vs GDP-bound KRAS wild-type
Chain of GDP-bound NRAS wild-type protein (P01111 whole entry): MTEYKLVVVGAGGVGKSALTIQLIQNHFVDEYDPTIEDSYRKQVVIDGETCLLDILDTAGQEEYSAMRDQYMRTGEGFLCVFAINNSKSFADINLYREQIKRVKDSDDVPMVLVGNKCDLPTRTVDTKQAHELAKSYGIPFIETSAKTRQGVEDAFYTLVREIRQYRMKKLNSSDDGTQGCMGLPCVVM

[2] = molecular target: GDP-bound HRAS wild-type protein (Homo sapiens, UniProt P01112); assay: Binding to HRAS by surface plasmon resonance (SPR), Single Cycle Kinetics
Chain of GDP-bound HRAS wild-type protein (P01112 whole entry): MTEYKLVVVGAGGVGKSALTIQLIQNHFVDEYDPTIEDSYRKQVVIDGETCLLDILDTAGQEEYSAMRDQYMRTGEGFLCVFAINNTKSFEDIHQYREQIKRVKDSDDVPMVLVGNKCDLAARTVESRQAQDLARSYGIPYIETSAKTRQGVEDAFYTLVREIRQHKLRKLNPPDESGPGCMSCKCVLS

[3] = KD ratio, GDP-bound HRAS wild-type vs GDP-bound KRAS wild-type, SPR
[4] = SPR, GDP-bound HRAS wild-type vs GDP-bound KRAS wild-type
[5] = SPR, GDP-bound wild-type proteins

With `CCCN1C(=O)[C@@H]2CCN2C(=O)[C@H](C)N(C)C(=O)[C@H]([C@@H](C)CC)NC(=O)[C@H](CC(C)C)N(C)C(=O)C[C@@H](C(=O)N2CCOCC2)N(C)C(=O)[C@H](C2CCCC2)N(C)C(=O)C2(CCCC2)NC(=O)[C@@H]2C[C@H](O)CN2C(=O)[C@H](CCc2ccc(C(F)(F)F)c(Cl)c2)NC(=O)CN(C)C(=O)[C@@H]1Cc1ccc(C(F)(F)F)cc1` (stereo in doubt) [PP0238] the “NRAS/KRAS (ratio of KD for GDP-bound NRAS wild-type to KD for KRAS)” value ([1]; KD ratio NRAS/KRAS) was “C (A compound having a KD ratio of 0.1 or more and less than 3 is denoted as C)” and the “HRAS/KRAS (ratio of KD for GDP-bound HRAS wild-type to KD for KRAS)” value ([2]; SPR) was “C (A compound having a KD ratio of 0.1 or more and less than 3 is denoted as C)”.
With `CC[C@H](C)[C@@H]1NC(=O)[C@H](CC(C)C)N(C)C(=O)C[C@@H](C(=O)N2CCOCC2)N(C)C(=O)[C@H](C2CCCC2)N(C)C(=O)C2(CCCC2)NC(=O)[C@@H]2CCCN2C(=O)[C@H](CCc2ccc(C(F)(F)F)c(Cl)c2)NC(=O)CN(C)C(=O)[C@H](Cc2ccc(C(F)(F)F)cc2)N2CCCCC[C@@H](C2=O)N(C)C(=O)CN(C)C1=O` (stereo in doubt) [PP0319] the “NRAS/KRAS (ratio of KD for GDP-bound NRAS wild-type to KD for KRAS)” value ([1]; KD ratio NRAS/KRAS) was “B (a compound having 3 or more and less than 10 is denoted as B)” and the “HRAS/KRAS (ratio of KD for GDP-bound HRAS wild-type to KD for KRAS)” value ([2]; SPR) was “B (a compound having 3 or more and less than 10 is denoted as B)”.
With `CCO[C@@H]1C[C@H]2C(=O)NC3(CCC3)C(=O)N(C)[C@@H](C3CCCC3)C(=O)N(C)[C@H](C(=O)N(C)C)CC(=O)N(C)[C@@H](CC)C(=O)N[C@@H]([C@@H](C)CC)C(=O)N(C)CC(=O)N(C)[C@H]3CCCCCN(C3=O)[C@@H](Cc3ccc(C(F)(F)F)cc3)C(=O)N(C)CC(=O)N[C@@H](CCc3ccc(C(F)(F)F)c(C)c3)C(=O)N2C1` (stereo in doubt) [PP0883] the “NRAS/KRAS (ratio of KD value with respect to NRAS to KD value with respect to KRAS)” value ([1]; KD ratio) was “B (a compound having 3 or more and less than 10 is denoted as B)” and the “HRAS/KRAS (ratio of KD value with respect to HRAS to KD value with respect to KRAS)” value [2, 3] was “B (a compound having 3 or more and less than 10 is denoted as B)”.
For `CCC(CC)[C@H]1C(=O)N(C)[C@H](C(=O)N(C)C)CC(=O)N(C)[C@@H](COC)C(=O)N[C@@H]([C@@H](C)CC)C(=O)N(C2CC2)CC(=O)N(C)[C@H]2C/C=C\CCN(C2=O)[C@@H](Cc2ccc(C)cc2)C(=O)N(C)CC(=O)N[C@@H](CCc2ccc(Cl)c(Cl)c2)C(=O)N2C[C@H](OC(C)C)C[C@H]2C(=O)NC2(CC(C)(C)C2)C(=O)N1C` (stereo in doubt) [PP2509], the “NRAS/KRAS (ratio of KD value with respect to NRAS to KD value with respect to KRAS)” value [1] was “AA (a compound having 20 or more is denoted as AA)” and the “HRAS/KRAS (ratio of KD value with respect to HRAS to KD value with respect to KRAS)” value [2, 4] was “A (a compound having 10 or more and less than 20 is denoted as A)”.
In the case of `CCC[C@H]1C(=O)N[C@H]([C@@H](C)CC)C(=O)N2C[C@@H](OC)C[C@H]2C(=O)N(C)[C@H]2C/C=C\CCN(C2=O)[C@@H](Cc2ccc(C)cc2)C(=O)N(C)CC(=O)N[C@@H](CCc2ccc(C(F)(F)F)c(Cl)c2)C(=O)N2C[C@H](OCC)C[C@H]2C(=O)NC2(CCC2)C(=O)N(C)[C@@H](C2CCCC2)C(=O)N(C)[C@H](C(=O)N(C)C)CC(=O)N1C` (stereo in doubt) [PP2552], the “NRAS/KRAS (ratio of KD value with respect to GDP-bound NRAS wild-type protein to KD value with respect to KRAS)” value ([1]; KD ratio NRAS/KRAS, class symbols) is reported as “A (a compound having 10 or more and less than 20 is denoted as A)” and the “HRAS/KRAS (ratio of KD value with respect to GDP-bound HRAS wild-type protein to KD value with respect to KRAS)” value ([2]; class symbols) is reported as “B (a compound having 3 or more and less than 10 is denoted as B)”.
With `CCO[C@@H]1C[C@H]2C(=O)NC3(CC(C)(C)C3)C(=O)N(C)[C@@H](C3CCCC3)C(=O)N(C)[C@H](C(=O)N(C)CC)CC(=O)N(C)[C@@H](C3CCC3)C(=O)N[C@@H]([C@@H](C)CC)C(=O)N(C)CC(=O)N(C)[C@H]3C/C=C\CCN(C3=O)[C@@H](Cc3ccc(C(F)(F)F)cc3)C(=O)N(C)CC(=O)N[C@@H](CCc3ccc(C(F)(F)F)c(OC)c3)C(=O)N2C1` [PP1985] the “HRAS/KRAS (ratio of KD value for HRAS to KD value for KRAS)” value [2, 3] was “B (a compound having 3 or more and less than 10 is denoted as B)”.
With `CCC(CC)[C@H]1C(=O)N(C)[C@H](C(=O)N(C)C)CC(=O)N(C)[C@@H](COC)C(=O)N[C@@H]([C@@H](C)CC)C(=O)N(C2CC2)CC(=O)N(C)[C@H]2C/C=C\CCN(C2=O)[C@@H](CC2CCCCC2)C(=O)N(C)CC(=O)N[C@@H](CCc2ccc(Cl)c(Cl)c2)C(=O)N2C[C@H](OC(C)C)C[C@H]2C(=O)NC2(CC(C)(C)C2)C(=O)N1C` [PP2517] the “HRAS/KRAS (ratio of KD value with respect to HRAS to KD value with respect to KRAS)” value [2, 4] was “A (a compound having 10 or more and less than 20 is denoted as A)”.
In the case of `CCC[C@H]1C(=O)N[C@@H](CC(C)C)C(=O)N(C2CC2)CC(=O)N(C)[C@H]2C/C=C\CCN(C2=O)[C@@H](Cc2ccc(C)cc2)C(=O)N(C)CC(=O)N[C@@H](CCc2ccc(C(F)(F)F)c(Cl)c2)C(=O)N2C[C@H](OCC)C[C@H]2C(=O)NC2(CCC2)C(=O)N(C)[C@@H](C2CCCC2)C(=O)N(C)[C@H](C(=O)N(C)C)CC(=O)N1C` [PP2543], the “HRAS/KRAS (ratio of KD value with respect to GDP-bound HRAS wild-type protein to KD value with respect to KRAS)” value ([2]; class symbols) is reported as “B (a compound having 3 or more and less than 10 is denoted as B)”.
For `CC[C@H](C)[C@@H]1NC(=O)[C@H](COC)N(C)C(=O)C[C@@H](C(=O)N2CCCCC2)N(C)C(=O)[C@H](C2CCCC2)N(C)C(=O)C2(CC(C)(C)C2)NC(=O)[C@@H]2C[C@@H](OC(C)C)CN2C(=O)[C@H](CCc2cc(F)c(C(F)(F)F)c(F)c2)NC(=O)CN(C)C(=O)[C@H](Cc2ccc(C(F)(F)F)cc2)N2CC/C=C\C[C@@H](C2=O)N(C)C(=O)CN(C)C1=O` [PP2663], the “HRAS/KRAS (ratio of KD value with respect to GDP-bound HRAS wild-type protein to KD value with respect to KRAS)” value ([2]; class symbols) was “A (a compound having 10 or more and less than 20 is denoted as A)”.
For `CCC[C@H]1C(=O)N[C@@H]([C@@H](C)CC)C(=O)N(C)CC(=O)N(C)[C@H]2C/C=C\CCN(C2=O)[C@@H](Cc2ccc(C)cc2)C(=O)N(C)CC(=O)N[C@@H](CCc2ccc(Cl)c(OC)c2)C(=O)N2C[C@H](OCC)C[C@H]2C(=O)NC2(CC(C)(C)C2)C(=O)N(C)[C@@H](C(CC)CC)C(=O)N(C)[C@H](C(=O)N(C)C)CC(=O)N1C` [PP2791], the “HRAS/KRAS (ratio of KD value with respect to GDP-bound HRAS wild-type protein to KD value with respect to KRAS)” value ([2]; class symbols) was “A (a compound having 10 or more and less than 20 is denoted as A)”.
`CCO[C@@H]1C[C@H]2C(=O)NC3(CC(C)(C)C3)C(=O)N(C)[C@@H](C3CCCC3)C(=O)N(C)[C@H](C(=O)N(C)C)CC(=O)N(C)[C@H]3CCCCCCc4ccc(cc4)C[C@@H](C(=O)N(C)CC(=O)N[C@@H](CCc4ccc(C(F)(F)F)c(OC)c4)C(=O)N2C1)N1CC/C=C\C[C@@H](C1=O)N(C)C(=O)CN(C1CC1)C(=O)[C@H]([C@@H](C)CC)NC3=O` [PP3070] was tested, and the “HRAS/KRAS (ratio of KD value with respect to GDP-bound HRAS wild-type protein to KD value with respect to KRAS)” value [2, 5] was “B (a compound having 3 or more and less than 10 is denoted as B)”.
In the case of `CCC[C@H]1C(=O)N[C@@H]([C@@H](C)CC)C(=O)N(C)CC(=O)N(C)[C@H]2C/C=C\CCN(C2=O)[C@@H](Cc2ccc(C(F)(F)F)cc2)C(=O)N(C)CC(=O)N[C@@H](CCc2ccc(C(F)(F)F)c(OC)c2)C(=O)N2C[C@H](OCC)C[C@H]2C(=O)N(C)C2(CCC2)C(=O)N(C)[C@@H](C2CCCC2)C(=O)N(C)[C@H](C(=O)N2CCCCC2)CC(=O)N1C` [PP3103, (2S,8S,12R,14S,20S,23S,27S,30S,36S,38Z)-20-cyclopentyl-12-ethoxy-8-[2-[3-methoxy-4-(trifluoromethyl)phenyl]ethyl]-4,16,19,22,26,32,35-heptamethyl-30-[(1S)-1-methylpropyl]-23-(piperidine-1-carbonyl)-27-propyl-2-[[4-(trifluoromethyl)phenyl]methyl]spiro[1,4,7,10,16,19,22,26,29,32,35-undecazatricyclo[34.5.1.0^10,14]dotetracont-38-ene-17,1′-cyclobutane]-3,6,9,15,18,21,25,28,31,34,42-undecone], the “HRAS/KRAS (ratio of KD value with respect to GDP-bound HRAS wild-type protein to KD value with respect to KRAS)” value [2, 5] is reported as “A (a compound having 10 or more and less than 20 is denoted as A)”.
